Here are results for 18 compounds from US6451801B1, “Compounds and methods for treatment of asthma, allergy and inflammatory disorders” (UCB, S.A., priority 1999, dated 2002).

One assay has as its target T1, human cloned H1 receptor (Homo sapiens, UniProt P35367).
T1 construct: expressed in transfected cells; host or cells: CHO-K1
In words: CHO-K1 H1R binding assay. The conditions noted are these: 3H-pyrilamine 2 nM, CHO-K1 membranes, 3 hours at 37° C.; read-out: CHOH1 K1.

Assay [1] deals with T2, human 5-lipoxygenase enzyme (Homo sapiens, UniProt P09917).
T2 construct: endogenous in cells; host or cells: human whole blood (leukocytes) stimulated with A23187
T2 sequence (P09917 1-674): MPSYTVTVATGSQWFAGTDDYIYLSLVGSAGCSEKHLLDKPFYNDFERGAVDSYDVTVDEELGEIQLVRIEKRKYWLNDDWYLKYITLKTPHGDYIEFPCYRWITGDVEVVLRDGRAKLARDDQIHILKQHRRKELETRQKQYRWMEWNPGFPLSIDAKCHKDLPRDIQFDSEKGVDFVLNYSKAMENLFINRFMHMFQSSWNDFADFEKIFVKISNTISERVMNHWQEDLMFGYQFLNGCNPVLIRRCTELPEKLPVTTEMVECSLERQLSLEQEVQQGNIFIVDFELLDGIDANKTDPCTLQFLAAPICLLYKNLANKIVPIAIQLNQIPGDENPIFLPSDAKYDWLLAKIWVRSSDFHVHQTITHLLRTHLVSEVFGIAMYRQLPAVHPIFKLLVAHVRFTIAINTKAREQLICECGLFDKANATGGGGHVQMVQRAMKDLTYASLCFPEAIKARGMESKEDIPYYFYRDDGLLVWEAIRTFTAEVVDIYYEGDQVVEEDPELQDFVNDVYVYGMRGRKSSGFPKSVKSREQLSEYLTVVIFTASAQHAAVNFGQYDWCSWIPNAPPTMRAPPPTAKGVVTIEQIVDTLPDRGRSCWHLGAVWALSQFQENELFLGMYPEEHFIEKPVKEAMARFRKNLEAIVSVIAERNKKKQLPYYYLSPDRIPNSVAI
In words: Inhibition of LTB4 production in human whole blood. In kind it is cell-based. The conditions noted are these: human whole blood, calcium ionophore A23187 50 μM, LTB4 by EIA; read-out: HWB IC50. As for the experimental part:
This assay examines the ability of a compound to inhibit leukotriene B4 production from human blood stimulated with calcium ionophore. As this production of leukotriene B4 is mediated via the activation of the 5-lipoxygenase enzyme, this assay is predictive of a compound's ability to inhibit the human 5-lipoxygenase enzyme.
The procedure for the assay is as follows. Blood is drawn from normal human volunteers into tubes containing heparin. 1 ml of the heparinized blood is pipetted into a 1.5 ml polypropylene tube. To this sample is added either different concentrations of the test compound (5 μl) dissolved in DMSO or 5 μl of DMSO as a vehicle control. These samples are incubated in a water bath, at 37° C. for 15 min. 5 μl of the calcium ionophore A23187 (at a final concentration of 50 μM) is then added to each sample, which is vortexed and placed back in the water bath for 30 min. The samples are then centrifuged at 2500 rpm for 10 min. at 4° C. 50 μl of the supernatant is transferred into pre-cooled Eppendorf tubes containing 950 μl of enzyme immunoassay (EIA) buffer. A commercially available EIA kit (Cayman Chemical Co., Ann Arbor, Mich., USA) is used to subsequently measure the LTB4 production in the samples. The LTB4 levels produced in the vehicle control sample is then compared to those in which the test compound has been added. From this a percent inhibition of LTB4 production by each concentration of test compound is calculated and the IC50 for inhibition of LTB4 production for each test compound is determined.

The test system of the next assay is 5-lipoxygenase. In words: 5-Lipoxygenase inhibitory activity in vivo. To be noted: guinea pig, oral, 2 mg/kg, 6 hours. As for the experimental part:
Male, Hartley guinea pigs are obtained from Charles River Labs at a body weight of 350-400 grams. Compounds are prepared at a volume of [1-2 mg/ml] in 1% methocellulose for oral dosing. Animals are separated into groups of five (5). Each assay includes a control group dosed with vehicle. Each group of animals is dosed with either vehicle or compound by oral gavage. Animals are allowed to rest for one, three, or six hours after dosing. Control animals are allowed to rest for three hours. At the appropriate times, the animals are anesthetized with Urethane at 1.5 g/kg, ip. Blood is drawn into a heparinized syringe via cardiac puncture. Blood (0.5 ml) is aliquoted into separately-labeled 1.5 ml eppendorf tubes. Each sample is loaded with 5 μl of [15 mM] Arachidonic Acid, and placed in a 37° C. water bath for five minutes. After five minutes, the blood is stimulated with 5 μl of [5 mM] A23187 (Calcium Ionophore) and retained in the water bath for an additional 30 minutes. After the thirty minutes, the blood samples are removed from the water bath and centrifuged at 14,000 rpm for 2 minutes. Plasma is diluted to EIA buffer and an EIA is performed following manufacturer instructions (Cayman Chemical Co., Ann Arbor, Mich., USA). The results (Table 3) show the percent inhibition of 5-lipoxygenase by selected compounds at multiple time points post oral dosing. 50% inhibition or greater is considered significant.

In assay [2] the test system is histamine-induced bronchoconstriction. In words: Antihistaminergic activity in vivo (histamine-induced bronchoconstriction). To be noted: Cavia porcellus, guinea pig, oral, 2 mg/kg. As for the experimental part:
Male, Hartley guinea pigs are obtained from Charles River Labs at a body weight of 350 -400 grams. Inhibition of histamine activity is measured by the method of Konzett and Rössler (Naonyn-Schmiedebergs Arch. Exp. Path. Pharmakol. 195, 71-74 (1940). Anaethetized guinea pigs are subjected to artificial ventilation. The endotracheal pressure is recorded. Bronchoconstriction is induced by successive intravenous injections of histamine. The test compounds are administered orally in a 1% methocellulose suspension at set timepoints prior to the administration of histamine.
The results (Table 2) show the percent inhibition of histamine-induced bronchoconstriction by selected compounds at multiple time points post oral dosing. 50% inhibition or greater is considered significant.

pIC50, pKi: −log10 of the molar value.

T1 sequence (P35367 whole entry): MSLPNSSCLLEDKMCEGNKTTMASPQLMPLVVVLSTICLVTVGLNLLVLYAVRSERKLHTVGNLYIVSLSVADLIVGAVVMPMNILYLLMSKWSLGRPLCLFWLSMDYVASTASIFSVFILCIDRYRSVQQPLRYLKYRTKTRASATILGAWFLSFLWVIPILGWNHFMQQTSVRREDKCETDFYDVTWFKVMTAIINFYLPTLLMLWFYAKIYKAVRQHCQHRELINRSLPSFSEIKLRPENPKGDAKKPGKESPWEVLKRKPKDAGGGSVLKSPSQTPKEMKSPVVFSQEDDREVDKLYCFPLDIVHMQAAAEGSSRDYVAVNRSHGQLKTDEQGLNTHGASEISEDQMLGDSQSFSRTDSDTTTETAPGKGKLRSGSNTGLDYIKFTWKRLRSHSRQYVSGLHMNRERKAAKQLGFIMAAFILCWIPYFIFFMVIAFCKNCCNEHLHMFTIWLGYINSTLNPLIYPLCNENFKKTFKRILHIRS
Description for human cloned H1 receptor: CHO-K1 cells expressing the human cloned H1 receptor are grown to confluence in tissue culture dishes. Cells are harvested using D-PBS buffer (JRH Biosciences), kept at 4° C., centrifuging to pellet cells (4° C., 500 g, 10 min). The final cell pellet is homogenized and resuspended using Tris/sucrose buffer (20 mM Tris, 250 mM sucrose, pH 7.4 at 4° C.). Aliquots of the membrane preparation are stored at −70° C.
On the day of assay, the membrane preparation is thawed and centrifuged (TLA100.3 rotor, 4° C., 15 min, 23,000 rpm). The pellet is resuspended in Tris/sucrose buffer initially and then diluted further as necessary using assay buffer A (50 mM Na/KPO4, 2 mM MgCl2, 0.5% (w/v) BSA, pH 7.5).
For the binding assay, the membrane preparation, test compound and ^3H-pyrilamine (2 nM final) in buffer A with 1% (v/v) DMSO final are incubated in a 96-well polypropylene plate for 3 hours at 37° C. Non-specific binding is determined in the presence of 10 μM pyrilamine. A 96-well harvester (Packard) is used to harvest the 96-well plate onto a GF/B filter plate pre-treated with 0.1% (v/v) PEI. The plate is counted in a Packard Topcounter after adding Microscint 20 (Packard) scintillation fluid. The Ki for each compound at the histamine H1 receptor is then calculated from these counts.

Broadly, the pIC50 is −log10 of the IC50, conventionally taken in molar units. Turning to `NC(=O)N(O)Cc1cccc(C#CCN2CCN([C@H](c3ccccc3)c3ccc(Cl)cc3)CC2)c1` [Compound 8, N-{[3-(3-{4-[(1R) (4-chlorophenyl)phenylmethyl]piperazinyl}prop-1-ynyl)phenyl]methyl} amino-N-hydroxyamide], the pKi at human cloned H1 receptor is 6.66. Also, the negative-log IC50 (pIC50) in assay [1] is 5.24.
The corresponding values for `NC(=O)N(O)CCCCc1ccc(OCCN2CCN([C@H](c3ccccc3)c3ccc(Cl)cc3)CC2)c(C(=O)O)c1` [Compound 43, 2-(2-{4-[(1R)(4-chlorophenyl)phenylmethyl]piperazinyl}ethoxy)-5-[4-(aminohydroxycarbonylamino)butyl] benzoic acid] are 8.70 and 5.56.
The corresponding values for `NC(=O)c1cc(CCCCN(O)C(N)=O)ccc1OCCN1CCN([C@H](c2ccccc2)c2ccc(Cl)cc2)CC1` [Compound 42, 2-(2-{4-[(1R)(4-chloro-phenyl)phenylmethyl]piperazinyl}ethoxy)-5-[4-(aminohydroxy-carbonylamino)butyl] benzamide] are 7.46 and 6.97.
For `NC(=O)N(O)CC#CCN1CCN([C@H](c2ccccc2)c2ccc(Cl)cc2)CC1` [Compound 9, N-(4-{4-[(1R) (4-chlorophenyl)phenylmethyl]piperazinyl}but-2-ynyl) amino-N-hydroxyamide], the pKi at human cloned H1 receptor was 7.92. For the same compound, the negative logarithm of the IC50 (pIC50) in assay [1] is 5.37.
In the same order, the values of `NC(=O)N(O)Cc1ccc(CCCN2CCN([C@H](c3ccccc3)c3ccc(Cl)cc3)CC2)cc1` [Compound 13, N-{[4-(3-{4-[(1R) (4-chlorophenyl)phenylmethyl]piperazinyl}propyl)phenyl]methyl} amino-N-hydroxyamide] are 8.00 and 5.61.
`NC(=O)N(O)CCC#C[C@@H]1CC[C@@H](CN2CCN([C@H](c3ccccc3)c3ccc(Cl)cc3)CC2)O1` [Compound 46, N-{4-[5-({4-[(1R)(4-chlorophenyl)phenylmethyl]piperazinyl}methyl)(2S,5S)oxolan-2-yl]but-3-ynyl}amino-N-hydroxyamide]: at human cloned H1 receptor, the pKi is 6.88. In addition, in assay [1], the pIC50 was 6.50.
In the same order, the values of `NC(=O)N(O)Cc1ccc(C#CCN2CCN([C@H](c3ccccc3)c3ccc(Cl)cc3)CC2)cc1` [Compound 3, N-{[4-(3-{4-[(1R) (4-chlorophenyl)phenylmethyl]piperazinyl}prop-1-ynyl)phenyl]methyl} amino-N-hydroxyamide] are 6.59 and 5.77.
Consider `CN(O)C(=O)NCc1cccc(OCCN2CCN([C@H](c3ccccc3)c3ccc(Cl)cc3)CC2)c1` [Compound 24, N-{[3-(2-{4-[(1R) (4-chlorophenyl)phenylmethyl]piperazinyl}ethoxy)phenyl]methyl} (methyl(hydroxyamino)) carboxamide], for which, at human cloned H1 receptor, the pKi was 8.15. Further, in assay [1], the pIC50 was 6.60.
On to `NC(=O)N(O)CCOCCN1CCN([C@H](c2ccccc2)c2ccc(Cl)cc2)CC1` (racemic) [Compound 18, amino-N-[2-(2-{4-[(4-chlorophenyl)phenylmethyl]piperazinyl}ethoxy)ethyl]-N-hydroxyamide], for which, on human cloned H1 receptor, the pKi is 7.82. Also, the pIC50 in assay [1] was 5.68.
In the case of “N-[2-(2-{4-[(1R)(4-chlorophenyl)phenylmethyl] piperazinyl}ethoxy)ethyl]amino-N-hydroxyamide [Compound 22]”, on human cloned H1 receptor, the pKi is 8.10. The pIC50 in assay [1] is 5.83.
With `NC(=O)N(O)CCC#Cc1ccc(OCCN2CCN([C@H](c3ccccc3)c3ccc(Cl)cc3)CC2)c(C(=O)O)c1` [Compound 37, 2-(2-{4-[(1R)(4-chlorophenyl)phenyl-methyl]piperazinyl}ethoxy)-5-[4-(amino-hydroxycarbonylamino)but-1-ynyl]benzoic acid], the pKi on human cloned H1 receptor was 8.40. In addition, the pIC50 in assay [1] was 5.18.
In the case of `COC(=O)c1cc(C#CCCN(O)C(N)=O)ccc1OCCN1CCN([C@H](c2ccccc2)c2ccc(Cl)cc2)CC1` [Compound 36, methyl2-(2-{4-[(1R) (4-chlorophenyl)phenyl-methyl]piperazinyl}ethoxy)-5-[4-(amino-hydroxycarbonylamino)but-1-ynyl]benzoate], the pKi at human cloned H1 receptor is 6.38. Moreover, in assay [1], the pIC50 is 7.03.
Regarding `COC(=O)c1cc(CCCCN(O)C(N)=O)ccc1OCCN1CCN([C@H](c2ccccc2)c2ccc(Cl)cc2)CC1` [Compound 40, methyl2-(2-{4-[(1R) (4-chlorophenyl)phenyl-methyl]piperazinyl}ethoxy)-5-[4-(amino-hydroxycarbonylamino)butyl]benzoate], the pKi on human cloned H1 receptor is 6.92. Further, the pIC50 in assay [1] was 6.91.
`NC(=O)N(O)Cc1ccc(CN2CCN([C@H](c3ccccc3)c3ccc(Cl)cc3)CC2)o1` [Compound 26, N-{[5-({4-[(1R) (4-chlorophenyl)phenylmethyl]piperazinyl}methyl)(2-furyl)]methyl} amino-N-hydroxyamide]: the pKi on human cloned H1 receptor was 8.40. Further, the negative-log IC50 (pIC50) in assay [1] was 5.77.
For orientation: inhibition in vivo means the drop in the measured response relative to a control, in per cent. High values mean a response far below the control, low ones a response near the control. Consider `NC(=O)N(O)CCC#Cc1ccc(OCCN2CCN([C@H](c3ccccc3)c3ccc(Cl)cc3)CC2)cc1` [Compound 12, N-{4-[4-(2-{4-[(1R) (4-chlorophenyl)phenylmethyl]piperazinyl}ethoxy)phenyl]but-3-ynyl} amino-N-hydroxyamide], for which the “% inhibition of 5-lipoxygenase” value in the assay with 5-lipoxygenase came to 80%. Further, the inhibition in vivo at 2 mg/kg in assay [2] (3 hrs) came out at 62%; in assay [2] (6 hrs) it was 66%. For the same compound, the pIC50 in assay [1] was 6.57.
On to `NC(=O)N(O)CCCCc1cccc(OCCN2CCN(C(c3ccccc3)c3ccccc3)CC2)c1` [Compound 30, amino-N-[4-(3-{2-[4-(diphenylmethyl)piperazinyl]ethoxy}phenyl)butyl]-N-hydroxyamide], for which the pKi on human cloned H1 receptor was 7.44. Also, the pIC50 in assay [1] was 6.39.
`NC(=O)N(O)Cc1cccc(OCCN2CCN([C@H](c3ccccc3)c3ccc(Cl)cc3)CC2)c1` [Compound 5, N-{[3-(2-{4-[(1R) (4-chlorophenyl)phenylmethyl]piperazinyl}ethoxy)phenyl]methyl} amino-N-hydroxyamide]: the pKi on human cloned H1 receptor was 7.64. Moreover, the negative logarithm of the IC50 (pIC50) in assay [1] was 5.69.
In the same order, the values of `NC(=O)N(O)CC#CCN1CCN(C(c2ccc(F)cc2)c2ccc(F)cc2)CC1` [Compound 16, amino-N-(4-{4-[bis(4-fluorophenyl)methyl]piperazinyl}but-2-ynyl)-N-hydroxyamide] are 7.03 and 5.58.
